Blank lines part the entries; values can stand above or below the molecule they belong to.
Assays:
[1] = test system: ID1; experiment: qRT-PCR analysis of ID1 in THP-1 cells; format: cell-based, human; conditions: ATRA treatment
Procedure: (§1) Cultured cells were lysed in Macherey-Nagel RAI buffer containing 1% β-mercaptoethanol and total RNAs were isolated using NucleoSpin RNA isolation kit (Macherey-Nagel 740955). Reverse transcription and PCR amplification were performed. Primers used in this study are listed in Supplementary Table 1. Graphs show relative gene expressions to GAPDH. […] Statistical analyses were performed using PRISM7 software with unpaired t-test or one-way ANOVA test.

[2] = test system: Smad1; experiment: Western blot of pSmad1 and tSmad1 in THP-1 cells; format: cell-based, human; conditions: THP-1 cells
Procedure: Cultured cells were rinsed with cold PBS and lysed in Triton lysis buffer ([…] Tris-Cl, pH 7.5, 1% Triton X-100, 150 mM NaCl, 1 mM EDTA, 1 mM EGTA, 1 mM β-glycerophosphate, 1 mM Na3 VO4) or RIPA buffer with complete Protease Inhibitor Cocktail (Roche 11697498001). Lysates were mixed with Laemmli buffer with β-mercaptoethanol and boiled at 95° C. for 5 min to prepare SDS-PAGE samples. Western blot images were acquired with SuperSignal West pico ECL (ThermoFisher 34580) or Clarity Western ECL (Biorad 1705061) using LAS-3000 system (FujiFilm). Quantification of blots was done using ImageJ software.
(§2) THP-1 cells were treated with 0.3, 1.0 and 3.0 μg ml^−1 goat polyclonal anti-RSPO2 antibodies (R&D systems AF3266) or goat polyclonal GFP antibodies (ABIN 100085). After 48 hours, medium was replaced including fresh antibodies—and incubated another 24 hours. Western blot analysis and FACS analyses were performed as discussed above.

[3] = test system: THP-1 cells; experiment: Monocyte-macrophage differentiation of THP-1 cells (FACS / qRT-PCR of CD14, CD11B); format: cell-based, human
Procedure: as §1
For analyzing macrophage differentiation of THP-1, cells were harvested, pelleted and resuspended in ice-cold blocking buffer (PBS supplemented with 1% BSA and 0.1% NaN3). Cells were treated with Fc Receptor Binding Inhibitor as recommended by the manufacturer (eBioscience 14916173) and stained directly with FITC/APC-conjugated antibodies diluted in blocking buffer or with non-conjugated primary antibodies followed by fluorochrome-labeled secondary antibodies. Isotype-matched antibodies were used as controls. Dead cells were excluded by counterstaining with propidium iodide. For analyzing apoptosis of THP-1, cells were fixed in 4% PFA, permeabilized by MeOH and blocked with PBS supplemented with 1% BSA and 0.1% Tween-20. Cells were stained with anti-active Caspase-3 antibody and fluorochrome-labeled secondary antibody. FACS Samples were analyzed with FACSCalibur or FACSCanto (BD Biosciences). 10,000 events per samples were acquired, and results were processed with Cell Quest or FACSDiva software (BD Biosciences). For BMP4 stimulation, cells were treated with 5 and 25 ng ml^−1 recombinant human BMP4 protein (R&D systems 314-BP). 100, 300 and 1000 nM LDN […] (Tocris 6053) were used for rescue assay. For the THP-1 cell number quantification and differentiation validation in vivo, bone marrow cells were harvested from tibias of NSG mice and red blood cells were removed by ACK Lysing Buffer (Gibco A1049201). Cells were stained and analyzed as above. Here, 50,000 PI-negative events per samples were acquired.
as §2
The sequences of shRSPO2 and shControl (Table 1) were synthesized, inserted into the transfer plasmid Tet-pLKO-puro (Addgene 21915) and validated by sequencing. Lentivirus was produced with the 3rd generation lentiviral system according to the protocol available at the Trono lab as described (www.epfl.ch/labs/tronolab/). THP-1 cells were infected with lentivirus with 8 μg ml^−1 Polybrene (Sigma TR-1003) and selected with 0.5 μg ml^−1 puromycin (Calbiochem 540411). Single cell clones were obtained by limiting dilutions. The shRNA expression of clones was validated by monitoring RSPO2 expression after doxycycline treatment (1.0 μg ml^−1) for 3 days.

[4] = test system: AML cells; experiment: Cytarabine (AraC) treatment of THP-1 TetOn-shRNA clones; format: cell-based; conditions: Dox and AraC treatment
[5] = test system: BMP signaling; experiment: BMP-reporter assay in Xenopus embryos; format: in vivo, Xenopus laevis
Procedure: In vitro fertilization, microinjection and culture of Xenopus embryos were performed as previously described (Gawantka et al. (1995), EMBO J 14, 6268-6279). X. laevis embryos were microinjected with reporter DNAs, in vitro transcribed mRNAs or antisense morpholino oligonucleotide (Mo) using Harvard Apparatus microinjection system. Mos for rspo2 (Kazanskaya et al (2004, loc. cit.), lrp6, chordin, bmp4, znrf3 and standard control were purchased from GeneTools. rspo2^ΔTSP Mo was designed based on rspo2 sequence. X. laevis 4-cell stage embryos were microinjected 5 nl per each blastomere equatorially and cultured until indicated stages. Equal amount of total mRNA or Mo were injected by adjustment with ppl or standard control Mo. Scoring of phenotypes was executed blind, and data are representative images from two independent experiments. Embryos in each image were selected using Magnetic Lasso tool or Magic Wand tool of Adobe Photoshop CS6 software, and pasted into the uniform background color for presentation. Statistical analyses show Chi-square tests.

[6] = test system: ALK3; experiment: Western blot analysis of ALK3 in injected Xenopus embryos; format: in vivo, Xenopus laevis; conditions: Xenopus embryos coinjected with alk3-EYFP mRNA
Procedure: Injected Xenopus embryos were harvested at stage 15 to 18, homogenized in NP-40 lysis buffer (2% NP-40, 20 mM Tris-HCl pH 7.5, 150 mM NaCl, 10 mM NaF, 10 mM Na3VO4, 10 mM sodium pyrophosphate, 5 mM EDTA, 1 mM EGTA, 1 mM PMSF, and complete Protease Inhibitor Cocktail with a volume of 20 μl per embryo. Lysates were cleared with CFC-113 (Honeywell 34874), followed by centrifugation (14,000 rpm, 10 min at 4° C.), boiling at 95° C. for 5 min with NuPAGE Sample Buffer. 0.5-1 embryos per lane were loaded for SDS-PAGE analysis.

[7] = target: T1, recombinant human RSPO2 (Peprotech 120-43) (human, UniProt Q6UXX9 22-243); experiment: in vitro binding assay: plate-coated recombinant RSPO2, ALK3^ECD-AP conditioned medium, bound AP chemiluminescence; Scatchard plot
T1 construct: also called R-spondin 2
Procedure: High binding 96-well plates (Greiner M5811) were coated with 2 μg ml⁻¹ of recombinant human RSPO1 (Peprotech 120-38), RSPO2 (Peprotech 120-43), RSPO3 (Peprotech 120-44) or FGF8b (Peprotech 100-25) recombinant protein reconstituted in bicarbonate coating buffer (50 mM NaHCO₃, pH 9.6) overnight at 4° C. Coated wells were washed three times with TBST (TBS, 0.1% Tween-20) and blocked with 5% BSA in TBST for 1 hour at room temperature. 1.5 U ml⁻¹ of ALK3^ECD-AP or control conditioned medium was incubated overnight at 4° C. Wells were washed six times with TBST and bound AP activity was measured by the chemiluminescent SEAP Reporter Gene Assay kit (Abcam ab 133077). For ZNRF3-ALK3 binding assay, plates were coated with recombinant human ZNRF3 Fc Chimera protein (R&D systems 7994-RF). ALK3^ECD-AP was preincubated with RSPO2-Flag, RSPO2^ΔTSP-Flag conditioned medium or recombinant RSPO protein prior to treatment. Control conditioned medium and vesicles were used as control. […] Statistical analyses show unpaired t-tests.

[8] = target: T2, human ALK3-HA expressed in HEK293T cells (human, UniProt P36894 24-532); experiment: cell surface binding assay on HEK293T cells transfected with human ALK3-HA
T2 construct: whole, on cells; also called HA-tagged ALK3; BMPR1A
Procedure: Cell surface binding assays were carried essentially out as previously described (Dosch et al. (1997), Development 124, 2325-2334). In brief, human ALK3-HA and Xenopus tropicalis LGR4 DNA were transfected in HEK293T cells, and incubated with 1.5 U ml⁻¹ conditioned media for 3 hours on ice. After several washes and crosslinking, cells were treated with 2 mM Levamisole for 20 min to inactivate endogenous AP activities and developed with BM-Purple (Sigma 11442074001). Cells were mounted with Fluoromount G. Images were obtained using LEICA DMIL microscope/Canon DS126311 camera.

Molecule: CC1=C(/C=C/C(C)=C/C=C/C(C)=C/C(=O)O)C(C)(C)CCC1 [ATRA, (2E,4E,6E,8E)-3,7-dimethyl-9-(2,6,6-trimethylcyclohexen-1-yl) nona-2,4,6,8-tetraenoic acid]
ID1 expression [1]: induced
Smad1-phosphorylation [2]: induced Smad1-phosphorylation
macrophage differentiation, combination with Dox-induced shRSPO2 ([3]; THP-1 TetOn-shRSPO2 clones, Dox+ATRA): cooperated in inducing macrophage differentiation
CD11B expression ([3]; THP-1 cells, ATRA treatment): induced

Molecule: Nc1ccn([C@@H]2O[C@H](CO)[C@@H](O)[C@@H]2O)c(=O)n1 [cytarabine]
sensitivity of AML cells to cytarabine upon loss of RSPO2 [4]: sensitize

Molecule: rspo2 Mo: antisense morpholino against Xenopus rspo2, GCCGTCCAAATGCAGTTTCAAC (SEQ ID NO:9) (all phosphorodiamidate morpholino (PMO))
endogenous BMP signaling ([5]; Xenopus neurulae, injection): increased endogenous BMP signaling
BMP signaling reporter, coinjection of bmp4 Mo and rspo2 Mo ([5]; coinjection with bmp4 Mo): canceled each other out
ALK3-EYFP protein levels [6]: increased ALK3-EYFP protein levels

Kd [7]: ~4.8 nM
B1: ALK3^ECD-AP (extracellular domain of ALK3 fused to alkaline phosphatase, conditioned medium) (receptor, UniProt P36894 24-152, looked up)
chain: QNLDSMLHGTGMKSDSDQKKSENGVTLAPEDTLPFLKCYCSGHCPDDAINNTCITNGHCFAIIEEDDQGETTLASGCMKYEGSDFQCKDSPKAQLRRTIECCRTNLCNQYLQPTLPPVVIGPFFDGSIR
notes: extracellular domain; also called BMPR1A extracellular domain; not shown: alkaline phosphatase (AP) fusion partner from AP-pCS2+

B2: RSPO2^ΔTSP (human RSPO2 TSP1 domain deletion mutant) (ligand, not shown: small tags and cut ends)
chain: QGNRWRRSKRASYVSNPICKGCLSCSKDNGCSRCQQKLFFFLRREGMRQYGECLHSCPSGYYGHRAPDMNRCARCRIENCDSCFSKDFCTKCKVGFYLHRGRCFDECPDGFAPLEETMECVE
notes: also called RSPO2^ΔTSP-Flag
binding result [8]: no binding (tested: 1.5 U ml^-1 conditioned media)

Source: patent US20250346890A1, “LEUKEMIA TREATMENT” (Deutsches Krebsforschungszentrum, priority 2019, published 2025)
